From ChEMBL document CHEMBL1949590, “Discovery of a novel class of orally active trypanocidal N-myristoyltransferase inhibitors” (J Med Chem, 2012) come the findings set out here.

Calls of active or inactive are those of the source. No cut-off for these calls is given here.

One series relates to Trypanosoma brucei brucei. Nature of the series: Antitrypanosomal activity against Trypanosoma brucei brucei GVR35 infected in NMRI mouse assessed as increase in survival time at 100 mg/kg, po bid administered on day 21 post infection for 5 days after 21 days relative to control.
Details: not given
The series is classed as functional, organism-based. Further details: dose 100 mg/kg.
As for `Cc1nn(C)c(C)c1NS(=O)(=O)c1c(Cl)cc(-c2ccnc(N3CCNCC3)c2)cc1Cl` [listing 1 of 2 here], the Survival entry was “inactive”.

For another series, the system named is Trypanosoma brucei. Nature of the series: Antimicrobial activity against blood stream form Trypanosoma brucei BSF427 expressing VSG118 after 69 hrs by resazurin-based fluorescent assay. The series is classed as functional, organism-based. Conditions: BSF427, 69 h.
As usually defined, the EC50 is the concentration at which the effect is half-maximal. A lower EC50 goes with greater potency. The compound `Cc1nn(C)c(C)c1NS(=O)(=O)c1c(Cl)cc(-c2ccc(CN3CCN(C)CC3)cc2)cc1Cl` returned an EC50 of 3.6 µM.

The test system of a further series is Trypanosoma brucei brucei. Nature of the series: Antitrypanosomal activity against Trypanosoma brucei brucei GVR35 infected in NMRI mouse assessed as increase in survival time at 20 mg/kg, ip qd for 5 days measured after 180 days. It counts as functional. As to conditions: route intraperitoneal.
For the compound `Nc1nc(N)nc(Nc2ccc([As]3SCC(CO)S3)cc2)n1` (stereo not given) [MELARSOPROL], the survival at 20 mg/kg was 100%.

Another series deals with T1, Glycylpeptide N-tetradecanoyltransferase 1 (Homo sapiens, UniProt P30419).
T1 sequence (P30419 whole entry): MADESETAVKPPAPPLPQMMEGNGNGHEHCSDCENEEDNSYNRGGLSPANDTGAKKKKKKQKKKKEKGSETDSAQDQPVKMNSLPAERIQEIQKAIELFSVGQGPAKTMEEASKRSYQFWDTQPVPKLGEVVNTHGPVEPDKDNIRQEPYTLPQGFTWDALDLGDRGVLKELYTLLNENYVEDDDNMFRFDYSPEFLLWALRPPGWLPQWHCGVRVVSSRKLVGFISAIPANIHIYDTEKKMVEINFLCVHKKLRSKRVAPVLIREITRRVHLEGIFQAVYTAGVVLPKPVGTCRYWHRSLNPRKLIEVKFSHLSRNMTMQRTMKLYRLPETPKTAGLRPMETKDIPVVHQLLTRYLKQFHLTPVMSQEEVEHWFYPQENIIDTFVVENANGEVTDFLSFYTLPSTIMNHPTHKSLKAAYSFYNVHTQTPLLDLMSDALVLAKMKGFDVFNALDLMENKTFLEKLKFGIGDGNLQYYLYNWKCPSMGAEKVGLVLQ
Details: not given
As a reminder, the IC50 is the point on the concentration scale where inhibition reaches its midpoint. For `Cc1nn(C)c(C)c1NS(=O)(=O)c1ccc(NCCCn2ccnc2)nc1`, half-maximal inhibition (IC50) required 8.7 µM.

Compound `Cc1nn(C)c(C)c1NS(=O)(=O)c1ccc(NCCN2CCN(C(C)C)CC2)nc1` displayed an IC50 greater than 1 µM.

`Cc1nn(C)c(C)c1NS(=O)(=O)c1ccc(Cl)nc1` yielded an IC50 greater than 100 µM.

With `Cc1nn(C)c(C)c1NS(=O)(=O)c1c(Cl)cc(-c2cccc3cnccc23)cc1Cl`, the IC50 is greater than 100 µM.

`Cc1nn(C)c(C)c1NS(=O)(=O)c1ccc(NCc2ccc3[nH]ccc3c2)nc1`: the IC50 was determined as 2.7 µM.

`Cc1nn(C)c(C)c1NS(=O)(=O)c1ccc(NCCN2CCN(Cc3ccccc3)CC2)nc1` returned an IC50 greater than 10 µM.

Compound `Cc1nn(C)c(C)c1NS(=O)(=O)c1ccc(NCCN2CCN(c3ccccc3)CC2)nc1` came in with an IC50 greater than 1 µM.

On to `Cc1nn(C)c(C)c1NS(=O)(=O)c1ccc(NCCCN2CCN(C)CC2)nc1`, for which 2.4 µM corresponded to half-maximal inhibition (IC50).

`Cc1nn(C)c(C)c1NS(=O)(=O)c1ccc(NCCN2CCN(C(=O)OC(C)(C)C)CC2)nc1`: the IC50 is greater than 10 µM.

For the compound `Cc1nn(C)c(C)c1NS(=O)(=O)c1c(Cl)cc(-c2cccc3c2CCNC3)cc1Cl`, the IC50 turned out to be 4.3 µM.

As for `Cc1nn(C)c(C)c1NS(=O)(=O)c1ccc(N2CCC(N3CCNCC3)C2)nc1` (stereo not given), the IC50 was 1.6 µM.

Compound `Cc1nn(C)c(C)c1NS(=O)(=O)c1c(Cl)cc(-c2ccc(CN3CCN(C)CC3)cc2)cc1Cl` had an IC50 of 4.2 µM.

System in the next series: not listed separately
Nature of the series: Fraction unbound in mouse plasma. It counts as ADME, cell-free.
Details: not given
The term fraction unbound denotes free concentration divided by total concentration. A lower fraction unbound goes with little free substance. As for `Cc1nn(C)c(C)c1NS(=O)(=O)c1c(Cl)cc(-c2ccnc(N3CCNCC3)c2)cc1Cl` [listing 2 of 2 here], the fraction unbound came out at 0.11.

System in the next series: not listed separately
Nature of the series: Dissociation constant, pKa of the compound. It counts as physicochemical.
Details: not given
By pKa is commonly meant the negative logarithm of the acid dissociation constant. Low readings indicate a stronger acid or weaker base, high ones a weaker acid or stronger base. As to `Cc1nn(C)c(C)c1NS(=O)(=O)c1ccc(NCCCn2ccnc2)nc1`, the pKa came out at 7.1.

`Cc1nn(C)c(C)c1NS(=O)(=O)c1ccc(NCCN2CCN(C)CC2)nc1` had a pKa of 7.9.

As for `Cc1nn(C)c(C)c1NS(=O)(=O)c1ccc(NCCC2CCN(C)CC2)nc1`, the pKa worked out at 9.6.

`Cc1nn(C)c(C)c1NS(=O)(=O)c1ccc(NCCN2CCNCC2)nc1` showed a pKa of 9.3.
